In US20090203661A1, “Betulinic acid, derivatives and analogs thereof and uses therefor” (priority 2006, published 2009):

Assays:
p21 promoter [1] = test: Chromatin immunoprecipitation (ChIP) assay, p21 promoter, Panc-28 cells; type: cell-based, human; conditions: 5 μM, 1 or 2 hr
Protocol: Panc-28 cells were treated with the different compounds as indicated for 24 hr and whole cell lysates were obtained and analyzed by immunoblots. […] Cells were transfected with the various constructs, treated with DMSO, BA, CN-BA, CN-BA-Me alone or in combination with T007, and luciferase activity determined. Results of all transactivation studies in this Figure are presented as means±SE for at least three separate determinations for each treatment group. Significant (p<0.05) induction compared to solvent (DMSO) control (*) and inhibition by cotreatment with T007 (**) are indicated. FIGS. 10D-10F show chromatin immunoprecipitation assays. Primers designed for the proximal region of the p21 promoter (FIG. 10D) were used for a ChIP assay in Panc-28 cells (FIG. 10E) treated with DMSO, 5 μM BA, 5 μM CN-BA, and 5 μM CN-BA-Me for 1 or 2 hr. Analysis of interactions of Sp1 and PPARγ with the p21 promoter were carried out in the ChIP assay as described. The ChIP assay was also used to examine binding of TFIIB to the GAPDH promoter (positive control) (FIG. 10F) and to exon 1 of CNAP1 (negative control).
The ligand-dependent recruitment of PPARγ to the p21 promoter by CN-BA and CN-BA-Me was examined using a ChIP assay of Panc-28 cells treated with the betulinic acid, CN-BA and CN-BA-Me for 1 or 2 hr. […] This is consistent with receptor-independent activation of p21 by betulinic acid and the mechanism of this response is currently being investigated. As a control for this experiment, transcription factor TFIIb bound to the proximal region of the GAPDH gene promoter but not to exon-1 of the CNAP1 gene.

p21 promoter [2] = test: p21 promoter luciferase transactivation in Panc-28 cells; type: cell-based, human; conditions: for transactivation, p21-luc(Fl) (−2325 to +8): Panc-28; for effect of T007 on induced p21-luc(Fl) luciferase activity: cotreatment with T007
Protocol: Cells were seeded onto the 12-well plates and 0.4 μg of GAL4-Luc, 0.04 μg of β-GAL, 0.04 μg of GAL4DBD-PPARγ, and 0.4 μg of p21-luc(FL) containing −2325 to +8 insert, 0.4 μg of p21-luc (−124) containing −124 to +8 insert and 0.4 μg of p21-LUC (−60) containing −60 to +8 insert were transfected using LipofectAMINE reagent (Invitrogen) following the manufacturer's protocol. Cells were treated either with vehicle or respective compounds suspended in complete medium after 6 hr of transfection. Cell lysate is extracted after 20-22 hr by adding 100 μl of 1× reporter lysis buffer per well and 30 μl of this extract is used to quantitate the luciferase activity using Lumicount (Perkin-Elmer Life and Analytical Sciences). Each experiment is done in triplicate and the results are normalized to the β-GAL activity.

PPARγ = molecular target: T1, PPARγ (Homo sapiens, UniProt P37231); test: Mammalian two-hybrid assay (VP-PPARγ / GAL4-coactivator) in SW480 cells; type: cell-based
T1 construct: containing the DEF region of the PPARγ (amino acids 183-505) fused to the pVP16 expression vector; expressed in transfected cells; host or cells: SW480 colon cancer cells; plasmid provided by Dr. Shigeaki Kato (University of Tokyo)
T1 sequence (P37231 183-505): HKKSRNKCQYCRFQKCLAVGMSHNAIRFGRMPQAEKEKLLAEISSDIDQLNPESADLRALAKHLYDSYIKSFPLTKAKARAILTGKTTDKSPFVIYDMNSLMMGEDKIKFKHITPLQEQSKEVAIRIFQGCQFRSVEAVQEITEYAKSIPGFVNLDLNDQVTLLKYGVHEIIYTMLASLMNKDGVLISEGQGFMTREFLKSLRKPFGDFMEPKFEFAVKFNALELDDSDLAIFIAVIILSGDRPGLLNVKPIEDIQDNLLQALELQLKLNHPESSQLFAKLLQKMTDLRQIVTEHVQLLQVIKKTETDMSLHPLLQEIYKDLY
Protocol: The GAL4 reporter construct containing 5×GAL4 response elements (p GAL4) was provided by Dr. Marty Mayo (University of […], Chapel Hill, N.C.). The GAL4-coactivator fusion plasmids pM-SRC1, pMSRC2, pMSRC3, pM-DRIP205, pM-CARM-1 and PPARγ-VP16 fusion plasmid (Vp-PPARγ) containing the DEF region of the PPARγ (amino acids 183-505) fused to the pVP16 expression vector were provided by Dr. Shigeaki Kato (University of Tokyo, Tokyo, Japan). SW480 colon cancer cells were plated in 12-well tissue culture plates at 1×10^5 cells per well in DMEM/Ham's F-12 medium supplemented with 2.5% charcoal stripped FBS.
After allowing them to adhere overnight, transient transfections were carried out with GAL4-Luc (0.4 μg), β-GAL (0.04 μg), VP-PPARγ (0.04 μg), pM-SRC1 (0.04 μg), pM-PGC-1 (0.04 μg), pM-SMRT (0.04 μg), pM-TRAP220 (0.04 μg), pM-DRIP205 (0.04 μg), and pMCARM1 (0.04 μg) using LipofectAMINE2000 (Invitrogen) following the manufacturer's guidelines. After 6 hr of transfection, cells were treated in triplicate either with vehicle (DMSO) or the indicated compound suspended in complete medium for 20-24 hr. One hundred μL per well of 1× Reporter Lysis Buffer (Promega) was used to lyse the cells and 30 μl of this lysate was used to perform the luciferase and β-GAL assays using Lumicount (Perkin-Elmer Life and Analytical Sciences, Boston, Mass.). The luciferase activities obtained were normalized to the β-gal activity.

HT-29 cells = test: miR-27a and ZBTB10 mRNA expression in HT-29 cells; type: cell-based, human
3T3-L1 adipocytes = test: 3T3-L1 differentiation and Oil Red O staining; type: cell-based; conditions: 0.25 μM
Protocol: 3T3-L1 preadipocytes were cultured on poly-lysine-coated coverslips with DMEM and 10% FBS at 5% CO2 in 24-well plates. At 2 days post-confluence, cells were incubated with fresh media supplemented with 3-isobutyl-1-methylxanthine (0.5 mM), dexamethasone (1 μM), insulin (1.7 μM), and indicated compounds (0.25 μM). After 48 hr, cells were changed to fresh media and treated with DMSO or indicated compounds for 5 days. Cells without any treatment for the entire 7 days were used as control. The cells were then fixed with 10% formalin. Fixed cells were washed with 60% isopropanol and stained with filtered 60% Oil Red O in deionized water. After staining, cells were washed with water and photographed.

RKO colon cancer cells = test: Western blot of proapoptotic responses and Sp proteins in RKO cells; type: cell-based
Protocol: RKO cells were […] with BA or CN-BA for 24 hr and whole cell lysates were examined by Western blot analysis.
RKO colon cancer cells were treated with BA/CN-BA for 24 hr (FIG. 15A) or 48 hr (FIG. 15B) and Miapaca-2 pancreatic cancer cells were treated with BA/CN-BA for 24 hr (FIG. 15C). Whole cell lysates were examined by Western blot analysis.

Row | Structure (SMILES) | Sp1 binding to p21 promoter (p21 promoter [1]) | recruitment of PPARγ to proximal GC-rich region of p21 promoter (p21 promoter [1]) | transactivation, p21-luc(Fl) (−2325 to +8) (p21 promoter [2]) | effect of T007 on induced p21-luc(Fl) luciferase activity (p21 promoter [2]) | activation of GAL4-CARM1 (PPARγ) | luciferase activity, VP-PPARγ with GAL4 PGC-1 and GAL4 SRC-1 (PPARγ) | ZBTB10 expression (HT-29 cells) | miR-27a expression (HT-29 cells) | Oil Red O staining (fat droplets) (3T3-L1 adipocytes) | concentration giving significant induction of p21-luc(60) (p21 promoter [2]; construct lacking GC-rich sites 3 and 4) [µM] | Sp protein expression (RKO colon cancer cells; 24 and 48 hr) | ATF3, JNK phosphorylation, CHOP and DR5 (RKO colon cancer cells; 24 hours) | proapoptotic responses (RKO colon cancer cells; 24 hours) | concentrations decreasing Sp proteins (RKO colon cancer cells; 48 hr) [µM]
1 | COC(=O)C12CCC(C(C)C)C1C1CCC3C4(C)C=C(C#N)C(=O)C(C)(C)C4CCC3(C)C1(C)CC2 (stereo not shown) [CN-BA-Me, Methyl 2-cyano-lup-1-en-3-oxo-20-oate] | enhanced binding of Sp1 | recruited PPARγ | induce transactivation | inhibited | activated | significantly induced luciferase activity | increased expression of ZBTB10 | decreased expression of miR-27a | induce Oil Red O staining |  |  |  |  | 
2 | CC(C)C1CCC2(C(=O)O)CCC3(C)C(CCC4C5(C)C=C(C#N)C(=O)C(C)(C)C5CCC43C)C12 (stereo not shown) [CN-BA] | enhanced binding of Sp1 | recruited PPARγ | induce transactivation | inhibited |  | significantly induced luciferase activity | increased expression of ZBTB10 | decreased expression of miR-27a | induce Oil Red O staining | 7.5 | decrease Sp protein expression | activate | activate proapoptotic responses | 
3 | C=C(C)[C@@H]1CC[C@]2(C(=O)O)CC[C@]3(C)[C@H](CC[C@@H]4[C@@]5(C)CC[C@H](O)C(C)(C)[C@@H]5CC[C@]43C)[C@@H]12 [betulinic acid, Betulinic acid] |  |  |  |  |  |  |  |  |  |  |  |  |  | 1 to 5
